Measurements from patent US7312181B2, “Acylated thiosemicarbazides as herbicides” (Cropsolution, Inc., priority 2005, dated 2007).

Each compound was assayed on Arabidopsis thaliana (assay: Plate-based in vivo herbicidal screen, Arabidopsis thaliana). Conditions: 192 h, seeds in 96-well plate, 27° C., 8 days, continuous fluorescent lighting, scored by visual inspection.
Procedure: Plate-based in vivo screens were used to identify compounds with herbicidal activity. Three species of plants were used in screening: Arabidopsis thaliana, Agrostis sp. and Nicotinia tabacum (common tobacco). Test compounds in 1 μL of dimethylsulfoxide (DMSO) were delivered to individual wells of a 96-well microtiter plate. Growth media containing 10-15 seeds per 100 uL were then added. The growth media consisted of Murashige and Skoog Basal salt mixture, and 0.15% low melt agarose, all at a pH 6.2. The seeds remained neutrally buoyant and were easily pipettable at this concentration of low melt agarose. Each plate contained a column of untreated control wells in order to determine the false positive rate. The plates were covered and sealed and incubated at 27° C. for 8 days under continuous fluorescent lighting (155 umol/m^2/s). The plates were scored for herbicidal activity by visual inspection. Observed symptomology included growth inhibition, bleaching, leaf curling, and root growth inhibition. Six commercial herbicide standards were run concurrently with the experimental compounds as internal controls for assay sensitivity and plant response. The standards are described in Table 1 with their biochemical mode of action. The herbicidal activity of compositions in the present invention, presented as EC90 concentrations in the Arabidopsis thaliana screen, is tabulated in Table 2.

Row | SMILES | EC90
1 | O=C(NNC(=S)Nc1ccccc1F)c1cccc(NC(=O)c2cccc(Cl)c2)c1 [Compound 9, 1-[3-(3-Chlorobenzamido)-benzoyl]-4-(2-fluorophenyl)-thiosemicarbazide] | 50 nM
2 | O=C(NNC(=S)Nc1ccccc1C(F)(F)F)c1cccc(NC(=O)c2cccc(Cl)c2)c1 [Compound 7, 1-[3-(3-Chlorobenzamido)-benzoyl]-4-(2-trifluoromethylphenyl)-thiosemicarbazide] | 1200 nM
3 | O=C(NNC(=S)Nc1ccccc1Cl)c1cccc(NC(=O)c2cccc(Cl)c2)c1 [Compound 2, 1-[3-(3-Chlorobenzamido)-benzoyl]-4-(2-chlorophenyl)-thiosemicarbazide] | 100 nM
4 | O=C(NNC(=S)Nc1ccccc1Cl)c1cccc(NC(=O)c2cccc(C(F)(F)F)c2)c1 [Compound 12, 4-(2-Chlorophenyl)-1[3-(3-trifluoromethylbenzamido)-benzoyl]-thiosemicarbazide] | 300 nM
5 | O=C(NNC(=S)Nc1ccccc1Cl)c1cccc(NC(=O)c2cccc(F)c2)c1 [Compound 23, 4-(2-Chlorophenyl)-1-[3-(3-fluorobenzamido)-benzoyl]-thiosemicarbazide] | 50 nM
6 | Cc1c(NC(=O)c2cccc(Cl)c2)cccc1C(=O)NNC(=S)Nc1ccccc1Cl [Compound 4, 1-[3-(3-Chlorobenzamido)-2-methylbenzoyl]-4-(2-chloro-phenyl)-thiosemicarbazide] | 300 nM
7 | O=C(NNC(=S)Nc1ccccc1Cl)c1ccc(Cl)c(NC(=O)c2cccc(C(F)(F)F)c2)c1 [Compound 11, 4-(2-Chlorophenyl)-1-[4-chloro-3-(3-trifluoromethylbenzamido)-benzoyl]-thiosemicarbazide] | 3300 nM
8 | O=C(Nc1cccc(C(=O)NNC(=S)Nc2ccccc2Cl)c1Cl)c1cccc(Cl)c1 [Compound 3, 1-[2-Chloro-3-(3-chloro-benzamido)-benzoyl]-4-(2-chlorophenyl)-thiosemicarbazide] | 3300 nM
9 | O=C(NNC(=S)Nc1ccccc1Cl)c1cccc(NC(=O)c2cc(F)ccc2F)c1 [Compound 22, 4-(2-Chlorophenyl)-1-[3-(2,5-difluorobenzamido)-benzoyl]-thiosemicarbazide] | 50 nM
10 | O=C(NNC(=S)Nc1ccccc1)c1cccc(NC(=O)c2cccc(Cl)c2)c1 [Compound 6, 1-[3-(3-Chlorobenzamido)-benzoyl]-4-phenyl-thiosemicarbazide] | 150 nM
11 | O=C(Nc1cccc(C(=O)NNC(=S)Nc2ccccc2Cl)c1Cl)c1cccc(C(F)(F)F)c1 [Compound 14, 4-(2-Chlorophenyl)-1-[2-chloro-3-(3-trifluoromethylbenzamido)-benzoyl]-thiosemicarbazide] | 300 nM
